Results on 1 molecule are retold here after patent US20240026461A1, “BCL10 MUTATIONS AS BIOMARKERS FOR TARGETED THERAPY IN B CELL LYMPHOMAS” (priority 2022, published 2024).

In experiment [1] the test system is IL-6 secretion by OCI-Ly3 ABC-DLBCL cells. Briefly: IL-6 secretion assay using OCI-Ly3 cells (MSD). The following applies: Homo sapiens, 24 h, read-out: IC50, IL6 secretion. The experiment is classed as cell-based. The procedure:
(§1) FIG. 21A. Chemical structure of JNJ-67690246. FIG. 21B. IC50 values for JNJ-67690246 in biochemical enzymatic and cellular cytokine secretion assays. MALT1 proteolytic IC50: purified recombinant MALT1 was preincubated for 50 min at RT with JNJ-67690246, substrate Ac-LRSR-AMC was then incubated for 4 h. MALT1 proteolytic activity was determined by measuring the increase of AMC fluorescence. […] FIG. 21C. Table for IC50 values of three different MALT1 inhibitors measured in HBL1 and OCI-Ly10 cells expressing WT and mutant BCL10. D-F. MALT1 activity measured in OCI-Ly10 GloSensor reporter cells treated with MALT1 inhibitors. OCI-Ly10 MALT1 GloSensor cells were stably expressing wildtype and mutant BCL10, then treated with MALT1 inhibitors of different range (10-0.3 uM). FIG. 21G-I. NF-κB activity measured in NF-κB-RE-luciferase reporter cell lines treated with MALT1 inhibitors. HBL1 NF-κB reporter cells lines were stably expressing wildtype and mutant BCL10, and then treated with MALT1 inhibitors of different range (10-0.3 uM). NF-xB activity was performed 24 h after treatment. Error bars indicate SEM with 4 biological replicates. p<0.05; “p<0.01; “<0.001; ****p<0.0001; ns, not significant.
(§2) Secretion of the IL-6 and IL-10 cytokines by OCI-Ly3 ABC-DLBCL cells was measured using a Mesoscale assay (MSD). MALT1 inhibition results in a decrease of IL-6/10 secretion. […] Plates were read on a SECTOR imager.

Another experiment deals with OCI-LY10^WT. Kind of experiment: Growth inhibition assay (CellTiter Glo), OCI-Ly10 cells expressing BCL10 WT. Type of experiment: cell-based. The settings on record: Homo sapiens, 96 h, read-out: IC50, growth inhibition, MALT1 inhibitors. The procedure:
(§3) DLBCL cell lines were cultured in exponential condition and the cell growth was determined by CellTiter Glo (Promega). 3000-5000 cells were seeded and cultured in each well of 384 well plate for 96 h and treated with compounds every 48 h. Luminescence was read at the endpoint with the Synergy NEO microplate reader (BioTek). The value of compound treated cells was normalized to their vehicle treated controls and then used to calculate IC50 in GraphPad Prism (RRID:SCR_002798).
(§4) Given the distinct functional profiles, CARD11 dependencies, and MALT1 activation effects of the BCL10 CARD and truncation mutants, the inventors designed experiments to evaluate whether, and to what extent, these mutant BCL10 proteins might confer BTK inhibitor resistance. Isogenic ABC-DLBCL cells expressing BCL10WT, BCL10^R58Q and BCL10^E140X proteins were treated with escalating doses of three chemically distinct covalent BTK inhibitors: ibrutinib, acalabrutinib, or zanubrutinib. The cellular proliferation rates of the treated cells were measured using an ATP fluorescence assay after 96 hours of drug exposure.
(§5) Isogenic BCL10^WT, BCL10^R58Q and BCL10^E140X ABC-DLBCLs were exposed to increasing concentrations of each of these compounds for 96 hours.
A general note: Cellular ATP, detected with luciferase, serves as a proxy for viable cell number.

Experiment [2] concerns IL-10 secretion by OCI-Ly3 ABC-DLBCL cells. Kind of experiment: IL-10 secretion assay using OCI-Ly3 cells (MSD). The experiment is classed as cell-based. The following applies: Homo sapiens, 24 h, read-out: IC50, IL10 secretion. The procedure: as §1, §2
Experiment [3] has as its target T1, full-length MALT1 protein (Strep-MALT1(1-824)-His) (Homo sapiens, UniProt Q9UDY8).
T1 construct: full-length MALT1 protein (Strep-MALT1(1-824)-His); Strep (N); His (C); made in house; host or cells: baculovirus-infected insect cells
Briefly: Biochemical evaluation of MALT1 protease activity (Ac-LRSR-AMC cleavage). The settings on record: preincubated 50 min at RT, substrate Ac-LRSR-AMC 4 h; read-out: IC50, MALT1 enzyme. The procedure: FIG. 21A. Chemical structure of JNJ-67690246. FIG. 21B. IC50 values for JNJ-67690246 in biochemical enzymatic and cellular cytokine secretion assays. MALT1 proteolytic IC50: purified recombinant MALT1 was preincubated for 50 min at RT with JNJ-67690246, substrate Ac-LRSR-AMC was then incubated for 4 h. MALT1 proteolytic activity was determined by measuring the increase of AMC fluorescence. […] FIG. 21C. Table for IC50 values of three different MALT1 inhibitors measured in HBL1 and OCI-Ly10 cells expressing WT and mutant BCL10. D-F. MALT1 activity measured in OCI-Ly10 GloSensor reporter cells treated with MALT1 inhibitors. […] FIG. 21G-I. NF-κB activity measured in NF-κB-RE-luciferase reporter cell lines treated with MALT1 inhibitors. […]
MALT1 protease activity was assessed in vitro using full-length MALT1 protein (Strep-MALT1(1-824)-His) purified from baculovirus-infected insect cells. […] Cleavage of AMC from the arginine residue results in an increase in coumarin fluorescence measured at 460 nm (excitation 355 nm). […] Substrate was added and the reaction was then incubated for 4 h at RT, after which fluorescence was measured.
MALT1 protease activity was assessed in vitro using full-length MALT1 protein (Strep-MALT1 (1-824)-His) purified from baculovirus-infected insect cells. […] Cleavage of AMC from the arginine residue results in an increase in coumarin fluorescence measured at 460 nm (excitation 355 nm). […]

The subject of another experiment is HBL1^E140X. Briefly: Growth inhibition assay (CellTiter Glo), HBL1 cells expressing BCL10 E140X. The experiment is classed as cell-based. The settings on record: Homo sapiens, 96 h, read-out: IC50, growth inhibition, MALT1 inhibitors. The procedure: as §3, §4, §5
The subject of experiment [4] is isogenic ABC-DLBCL cells expressing BCL10^WT, BCL10^R58Q and BCL10^E140X. Kind of experiment: Growth inhibition of isogenic ABC-DLBCL cells, response described in words. The settings on record: 96 hours. Type of experiment: cell-based, human. The procedure:
as §3, §4, §5

Another experiment deals with OCI-LY10^R58Q. Briefly: Growth inhibition assay (CellTiter Glo), OCI-Ly10 cells expressing BCL10 R58Q. Type of experiment: cell-based. The following applies: Homo sapiens, 96 h, read-out: IC50, growth inhibition, MALT1 inhibitors. The procedure:
as §3, §4, §5

T1 sequence (Q9UDY8 whole entry): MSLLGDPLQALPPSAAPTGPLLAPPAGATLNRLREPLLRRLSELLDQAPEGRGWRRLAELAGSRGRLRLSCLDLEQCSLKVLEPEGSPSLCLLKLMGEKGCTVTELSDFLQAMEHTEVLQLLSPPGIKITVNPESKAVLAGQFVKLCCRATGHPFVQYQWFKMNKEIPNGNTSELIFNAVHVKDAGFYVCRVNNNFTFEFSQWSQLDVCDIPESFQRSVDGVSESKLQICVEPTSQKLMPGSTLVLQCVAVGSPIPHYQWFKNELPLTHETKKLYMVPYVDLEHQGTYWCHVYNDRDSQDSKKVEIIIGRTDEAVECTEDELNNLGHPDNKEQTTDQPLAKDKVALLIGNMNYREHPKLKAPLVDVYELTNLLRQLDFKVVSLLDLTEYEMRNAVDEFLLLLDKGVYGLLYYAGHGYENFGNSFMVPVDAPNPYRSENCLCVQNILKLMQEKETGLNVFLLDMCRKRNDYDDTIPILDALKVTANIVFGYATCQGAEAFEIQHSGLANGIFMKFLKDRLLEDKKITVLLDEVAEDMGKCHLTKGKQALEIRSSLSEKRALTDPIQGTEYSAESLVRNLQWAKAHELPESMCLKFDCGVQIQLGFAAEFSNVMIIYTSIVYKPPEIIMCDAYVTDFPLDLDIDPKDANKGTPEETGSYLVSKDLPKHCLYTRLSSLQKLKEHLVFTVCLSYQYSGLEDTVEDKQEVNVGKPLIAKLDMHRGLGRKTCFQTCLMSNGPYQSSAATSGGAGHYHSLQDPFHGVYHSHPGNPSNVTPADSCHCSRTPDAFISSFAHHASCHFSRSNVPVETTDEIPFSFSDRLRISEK

In general, IC50 refers to the midpoint of a concentration-inhibition curve. For the molecule `Cc1nc(-n2nccn2)c(Cl)cc1NC(=O)c1cnn(-c2cccc3c(=O)[nH]ccc23)c1C(F)(F)F` [JNJ-67690246], the IC50 amounted to 60 nM in experiment [1]; 320 ± 70 nM in the experiment with OCI-LY10^WT; 60 nM in experiment [2]; 15 nM in experiment [3]; 150 ± 20 nM in the experiment on HBL1^E140X; 780 ± 200 nM in the experiment with OCI-LY10^R58Q. Further, the “growth response in words” value in experiment [4] (BCL10^R58Q ABC-DLBCL cells) and in experiment [4] (BCL10^WT ABC-DLBCL cells) was “generally sensitive” in each case.
